Key:
LTB4 Receptor = molecular target: T1, LTB4 Receptor (Homo sapiens, UniProt Q15722); experiment: LTB4 Receptor Binding Assay; details: potency relative to compound of Example 1(b), defined as 1.0; 0.6×10^-9 M (^3H) LTB4, human neutrophils, 0° C, 45 minutes
T1 construct: Neutrophils were purified from venous blood of normal human donors; endogenous in cells; host or cells: neutrophils from venous blood of normal human donors (>95% pure)
Protocol: Neutrophils were purified from venous blood of normal human donors using standard techniques of dextran sedimentation, centrifugation on Ficoll-paque® (Pharmacia) or Histopaque® sterile solution (Sigma) and hypotonic lysis of erythrocytes (Boyum, A., Isolation of Leukocytes From Human Blood: Further Observations. Scand. J. Lab. Clin. Invest., 21 (Suppl. 97): 31, 1968). […] The incubation was carried out at 0° C. for 45 minutes and terminated by adding 5 ml of ice-cold HBSS followed by rapid filtration of incubation mixture under vacuum through GF/C glass fiber filters. The filters were further washed with 10 ml HBSS and radioactivity was determined. […] All data refer to specific binding. […] Pat. No. 4,889,871.

Human neutrophils [1] = experiment: Modified Boyden Chamber Chemotaxis, LTB4-induced; format: cell-based; details: 3×10^-8 M LTB4, 90 minutes, 37° C; for Relative Potency, Chemotaxis LTB4: potency relative to compound of Example 1(b), defined as 1.0
Text: (§1) Neutrophils were purified from venous blood of normal human donors using standard techniques of dextran sedimentation, centrifugation on Ficoll-paque® (Pharmacia) or Histopaque® sterile solution (Sigma) and hypotonic lysis of erythrocytes (Boyum, A., Isolation of Leukocytes From Human Blood: Further Observations. Scand. J. Lab. Clin. Invest., 21 (Suppl. 97): 31, 1968). The purity of isolated neutrophils was >95%. […] A final cell suspension of 3.4×10^6 neutrophils/ml of HEPES-buffered Hanks' balanced salt solution (HBSS, pH 7.3) was added to the upper well (0.8 ml) of a modified Boyden chamber (blind well). […] Following a 90 minute incubation at 37° C. in 5% CO2 -95% air, cells from the lower well were lysed and nuclei counted in a Model S-Plus-IV Coulter Counter. Percent inhibition was calculated from cell counts corrected for random migration by subtracting the mean of the HBSS control. […] Pat. No. 4,889,871.

Human neutrophils [2] = experiment: Modified Boyden Chamber Chemotaxis, fMLP-induced; format: cell-based; details: 1.0×10^-8 M fMLP, 90 minutes, 37° C; for Relative Potency, Chemotaxis fMLP: potency relative to compound of Example 1(b), defined as 1.0
Text: as §1

[3] = Homo sapiens, Neutrophil, 1.5 h, value in parentheses

T1 sequence (Q15722 whole entry): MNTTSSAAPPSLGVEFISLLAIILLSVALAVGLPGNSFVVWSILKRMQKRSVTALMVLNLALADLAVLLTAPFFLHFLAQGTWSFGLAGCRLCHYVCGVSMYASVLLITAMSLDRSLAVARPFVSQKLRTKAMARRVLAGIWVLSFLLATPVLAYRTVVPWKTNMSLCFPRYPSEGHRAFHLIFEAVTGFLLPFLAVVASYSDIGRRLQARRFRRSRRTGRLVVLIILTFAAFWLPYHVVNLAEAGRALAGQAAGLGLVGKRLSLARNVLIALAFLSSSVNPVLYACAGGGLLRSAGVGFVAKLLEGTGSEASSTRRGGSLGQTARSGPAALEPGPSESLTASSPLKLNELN

SMILES	Relative Potency, LTB4 Receptor Binding (LTB4 Receptor)	Relative Potency, Chemotaxis LTB4 (Human neutrophils [1])	Relative Potency, Chemotaxis fMLP (Human neutrophils [2])	IC50 (Human neutrophils [1]; [3]) [µM]	IC50 (Human neutrophils [2]; [3]) [µM]
CCCc1c(OCCCOc2ccc(-c3ccon3)c(OC)c2CCC)ccc2c1OC(C(=O)O)CC2 (centres unmarked) [Example 4, 3,4-Dihydro-7-[3-[4-(3-isoxazolyl)-3-methoxy-2-propylphenoxy]propoxy]-8-propyl-2H-1-benzopyran-2-carboxylic acid]	0.70	0.25	0.37	–	–
CCCc1c(OCCCOc2ccc(-c3cc[nH]n3)c(OC)c2CCC)ccc2c1OC(C(=O)O)CC2 (centres unmarked) [Example 6, 3,4-Dihydro-7-[3-[3-methoxy-2-propyl-4-(1H-pyrazol-3-yl)phenoxy]propoxy]-8-propyl-2H-1-benzopyran-2-carboxylic acid]	0.88	0.66	0.35	–	–
CCCc1c(OCCCOc2ccc(C(C)=O)c(OC)c2CCC)ccc2c1OC(C(=O)O)CC2 (centres unmarked) [Example 1(b), 7-[3-(4-acetyl-3-methoxy-2-propylphenoxy)propoxy]-3,4-dihydro-8-propyl-2H-1-benzopyran-2-carboxylic acid, reference compound]	–	–	–	1.8	5.4

Reference: patent US5051438A, “Alkoxy-substituted dihydrobenzopyran-2-carboxylic acids and derivatives thereof, compositions and use” (G. D. Searle & Co., priority 1990, dated 1991)
